Assay results from PubChem BioAssay (NCI).
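96-well plates; 48 h exposure; 5 concentrations. Endpoints by linear interpolation between flanking doses. Not reached: highest tested concentration assigned. GI50: concentration for 50% inhibition of growth. The concentration for full growth arrest is given as TGI.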

How the values were obtained:
Assay in all cases: inhibition of tumour cell growth, NCI panel, 48 h
[1] = test system: MOLT-4 leukemia
[2] = test system: NCI-H23 lung
[3] = test system: SR leukemia
[4] = test system: IGROV1 ovarian
[5] = test system: SF-539 CNS
[6] = test system: NCI-H226 lung
[7] = test system: NCI/ADR-RES ovarian
[8] = test system: BT-549 breast
[9] = test system: SW-620 colon
[10] = test system: SN12C renal
[11] = test system: MALME-3M melanoma
[12] = test system: RXF 393 renal
[13] = test system: ACHN renal
[14] = test system: SK-MEL-5 melanoma
[15] = test system: OVCAR-5 ovarian
[16] = test system: SF-268 CNS
[17] = test system: OVCAR-8 ovarian
[18] = test system: PC-3 prostate
[19] = test system: UACC-257 melanoma
[20] = test system: OVCAR-4 ovarian
[21] = test system: HOP-92 NSCLC
[22] = test system: SF-295 CNS
[23] = test system: HS 578T breast
[24] = test system: HCC-2998 colon
[25] = test system: COLO 205 colon
[26] = test system: HT29 colon
[27] = test system: TK-10 renal
[28] = test system: UO-31 renal
[29] = test system: CAKI-1 renal
[30] = test system: U251 CNS
[31] = test system: K-562 leukemia
[32] = test system: SNB-75 CNS
[33] = test system: SK-MEL-28 melanoma
[34] = test system: LOX IMVI melanoma
[35] = test system: NCI-H522 lung
[36] = test system: M14 melanoma
[37] = test system: NCI-H460 lung
[38] = test system: A549 NSCLC
[39] = test system: SK-OV-3 ovarian
[40] = test system: RPMI-8226 leukemia
[41] = test system: MDA-MB-435
[42] = test system: HCT-116 colon
[43] = test system: HCT-15 colon
[44] = test system: T-47D breast
[45] = test system: KM12 colon
[46] = test system: HL-60(TB) leukemia
[47] = test system: OVCAR-3 ovarian
[48] = test system: CCRF-CEM leukemia
[49] = test system: HOP-62 NSCLC
[50] = test system: SNB-19 CNS
[51] = test system: MDA-MB-231 breast
[52] = test system: A498 renal
[53] = test system: MCF7 breast
[54] = test system: UACC-62 melanoma
[55] = test system: DU-145 prostate
[56] = test system: 786-0 renal
[57] = test system: SK-MEL-2 melanoma
[58] = test system: EKVX NSCLC

## N#Cc1c2ccccc2c2n1-c1ccccc1OC(c1ccccc1)C2=O (stereo unspecified)
[1]
  GI50: 4.47 µM
  TGI: 19.6 µM
[2]
  GI50: 2.95 µM
  TGI: 15 µM
[3]
  GI50: 3.69 µM
  TGI: 15.6 µM
[4]
  GI50: 4.37 µM
  TGI: 19.2 µM
[5]
  GI50: 4.29 µM
  TGI: 16.8 µM
[6]
  GI50: 3.09 µM
  TGI: 11.7 µM
[7]
  GI50: 3.2 µM
  TGI: 12 µM
[8]
  GI50: 2.84 µM
  TGI: 7.76 µM
[9]
  GI50: 3.9 µM
  TGI: 16.7 µM
[10]
  GI50: 3.48 µM
  TGI: 14.9 µM
[11]
  GI50: 11.7 µM
  TGI: 30.6 µM
[12]
  GI50: 3.15 µM
  TGI: 9.55 µM
[13]
  GI50: 3.73 µM
  TGI: > 100 µM
[14]
  GI50: 1.86 µM
  TGI: 3.87 µM
[15]
  GI50: 5.37 µM
  TGI: 34 µM
[16]
  GI50: 3.73 µM
  TGI: 19.7 µM
[17]
  GI50: 3.26 µM
  TGI: 15.7 µM
[18]
  GI50: 2.77 µM
  TGI: 13.5 µM
[19]
  GI50: 3.82 µM
  TGI: 17.6 µM
[20]
  GI50: 2.43 µM
  TGI: 8.44 µM
[21]
  GI50: 2.01 µM
  TGI: 5.88 µM
[22]
  GI50: 3.42 µM
  TGI: 34.4 µM
[23]
  GI50: 3.53 µM
  TGI: 37 µM
[24]
  GI50: 15.5 µM
  TGI: 85.8 µM
[25]
  GI50: 4.67 µM
  TGI: 16.4 µM
[26]
  GI50: 4.1 µM
  TGI: 14 µM
[27]
  GI50: 4.9 µM
  TGI: 20.7 µM
[28]
  GI50: 3.19 µM
  TGI: 12 µM
[29]
  GI50: 3.16 µM
  TGI: 13.7 µM
[30]
  GI50: 3.17 µM
  TGI: 15.7 µM
[31]
  GI50: 3.19 µM
  TGI: 13.9 µM
[32]
  GI50: 2.23 µM
  TGI: 11.9 µM
[33]
  GI50: 8.67 µM
  TGI: 27.5 µM
[34]
  GI50: 2.45 µM
  TGI: 6.82 µM
[35]
  GI50: 2.06 µM
  TGI: 4.72 µM
[36]
  GI50: 3.89 µM
  TGI: 17.4 µM
[37]
  GI50: 3.69 µM
  TGI: 18.8 µM
[38]
  GI50: 3.11 µM
  TGI: 29.3 µM
[39]
  GI50: 6.03 µM
  TGI: 48.6 µM
[40]
  GI50: 2.75 µM
  TGI: 9.07 µM
[41]
  GI50: 2.88 µM
  TGI: 9.19 µM
[42]
  GI50: 2.84 µM
  TGI: 12.4 µM
[43]
  GI50: 3.12 µM
  TGI: 12.5 µM
[44]
  GI50: 3.28 µM
  TGI: 15.6 µM
[45]
  GI50: 3.32 µM
  TGI: 10.8 µM
[46]
  GI50: 2.83 µM
  TGI: 6.03 µM
[47]
  GI50: 5.1 µM
  TGI: 49.7 µM
[48]
  GI50: 2.66 µM
  TGI: 10.9 µM
[49]
  GI50: 3.84 µM
  TGI: 15.8 µM
[50]
  GI50: 4.25 µM
  TGI: > 100 µM
[51]
  GI50: 2.78 µM
  TGI: 8.99 µM
[52]
  GI50: 1.84 µM
  TGI: 6.89 µM
[53]
  GI50: 3.8 µM
  TGI: 14.6 µM
[54]
  GI50: 3.81 µM
  TGI: 18 µM
[55]
  GI50: 6.1 µM
  TGI: 26.3 µM
[56]
  GI50: 4.91 µM
  TGI: 23 µM

## CCCCCCOc1ccc(/C=N/NC(N)=S)cc1
[1]
  GI50: 0.432 µM
  TGI: 5.26 µM
[2]
  GI50: 4.3 µM
  TGI: > 100 µM
[3]
  GI50: 4.22 µM
  TGI: > 100 µM
[4]
  GI50: 0.922 µM
  TGI: 5.36 µM
[5]
  GI50: 2.38 µM
  TGI: 6.06 µM
[6]
  GI50: 3.65 µM
  TGI: 16.5 µM
[7]
  GI50: 3.4 µM
  TGI: 18.3 µM
[57]
  GI50: 6.95 µM
  TGI: > 49.9 µM
[8]
  GI50: 2.79 µM
  TGI: 9.15 µM
[9]
  GI50: 1.99 µM
  TGI: 20.5 µM
[10]
  GI50: 2.16 µM
  TGI: 9.9 µM
[11]
  GI50: 2.74 µM
  TGI: 7.82 µM
[12]
  GI50: 1.44 µM
  TGI: 3.61 µM
[13]
  GI50: 5.89 µM
  TGI: > 100 µM
[14]
  GI50: 7.52 µM
  TGI: 20.8 µM
[15]
  GI50: 12.8 µM
  TGI: > 100 µM
[16]
  GI50: 3.31 µM
  TGI: 41.8 µM
[17]
  GI50: 7.69 µM
  TGI: > 100 µM
[18]
  GI50: 4.07 µM
  TGI: > 100 µM
[58]
  GI50: 2.83 µM
  TGI: > 53.1 µM
[19]
  GI50: 3.5 µM
  TGI: 27.8 µM
[20]
  GI50: 3.12 µM
  TGI: 35 µM
[21]
  GI50: 2.39 µM
  TGI: 27.4 µM
[23]
  GI50: 3.16 µM
  TGI: 15 µM
[24]
  GI50: 6.45 µM
  TGI: > 100 µM
[25]
  GI50: 7.21 µM
  TGI: 48.5 µM
[26]
  GI50: 3.21 µM
  TGI: > 100 µM
[27]
  GI50: 5.54 µM
  TGI: 30.1 µM
[28]
  GI50: 0.822 µM
  TGI: 3.66 µM
[29]
  GI50: 1.57 µM
  TGI: 5.71 µM
[30]
  GI50: 7.96 µM
  TGI: > 100 µM
[31]
  GI50: 1.72 µM
  TGI: > 26.8 µM
[32]
  GI50: 4.74 µM
  TGI: 25.6 µM
[33]
  GI50: 10.9 µM
  TGI: 38.4 µM
[34]
  GI50: 3.78 µM
  TGI: 21.1 µM
[35]
  GI50: 0.421 µM
  TGI: 1.76 µM
[36]
  GI50: 2.54 µM
  TGI: 12.1 µM
[37]
  GI50: 10.2 µM
  TGI: > 100 µM
[38]
  GI50: 31.8 µM
  TGI: > 100 µM
[39]
  GI50: 27.2 µM
  TGI: > 100 µM
[40]
  GI50: 1.36 µM
  TGI: 4.41 µM
[41]
  GI50: 1.84 µM
  TGI: 7.56 µM
[42]
  GI50: 3.31 µM
  TGI: 16.1 µM
[43]
  GI50: 2.69 µM
  TGI: > 100 µM
[44]
  GI50: 2.39 µM
  TGI: 18.2 µM
[45]
  GI50: 3.09 µM
  TGI: 13.6 µM
[46]
  GI50: 1.15 µM
  TGI: 17.7 µM
[47]
  GI50: 1.97 µM
  TGI: 6.6 µM
[48]
  GI50: 0.605 µM
  TGI: 7.69 µM
[49]
  GI50: 60.1 µM
  TGI: > 100 µM
[50]
  GI50: 12.3 µM
  TGI: > 100 µM
[51]
  GI50: 1.67 µM
  TGI: 17.1 µM
[52]
  GI50: 16.8 µM
  TGI: 32.3 µM
[53]
  GI50: 6.74 µM
  TGI: 34.3 µM
[54]
  GI50: 2.58 µM
  TGI: 10.3 µM
[55]
  GI50: 7.26 µM
  TGI: > 100 µM
[56]
  GI50: 1.74 µM
  TGI: 6.05 µM
